Assay results: publication PMC10763564, “BrainBike peptidomimetic enables efficient transport of proteins across brain endothelium” (RSC Chemical Biology, 2023)
Starred links: 1 amine or outer side, 2 acyl side, 3 side chain; linkers in the order of their positions; H or OH if unused. Positions of bridges follow the written chain, without caps; N, C: chain ends. Residues, ends and D or L forms follow the SMILES beside them. TBMB = c1c(C[*:1])cc(C[*:3])cc1C[*:2]

Legend:
[1] = tested on: human brain endothelial cells monolayer (BBB model); assay: Permeability assay in the in vitro BBB cellular model (human brain-like endothelial cells on Transwell); type: in vitro ADME; conditions: human cell-based BBB model
Method: (§1) 48-hour post-transfection, 50 μl of the sulfo-Cy5-labelled peptides were added to each well at the appropriate concentration (from 5 to 600 nM) and incubated at 4°C for 1 hour. Cells were washed three times with 100 μL of PBS, trypsinized with 25 μl of trypsin for 5 min at 37°C and, then 75 μL of supplemented medium with formalin (33% v/v) was added. Cells were detached by repeated pipetting and analysed using an Agilent NovoCyteflow cytometer (Agilent). sCy5 was analysed at 640 nm while mNeon-Green at 488 nm. Data was analysed by plotting the geometric mean vs the concentration of the peptide.
Permeability assays in the in vitro BBB cellular model […]
the compound in Ringer HEPES was added to the donor compartment and 1500 µL of Ringer HEPES was introduced into the acceptor compartment. The plates were incubated for 2 h at 37 °C, and the solutions from both compartments were recovered and analysed. The samples were evaluated in triplicates. The amount of protein conjugates was quantified by fluorescence with Fluorescence Spectrophotometer F2500 HITACHI. […] The voltage for the detector was 700 V. Apparent permeability was calculated with the following formula: […]

[2] = molecular target: HeLa cells (TfR1+) (Homo sapiens, UniProt P02786); assay: Cell binding assay of sCy5-labelled peptides to HeLa cells by flow cytometry; type: cell-based; conditions: 5 to 600 nM, 4 °C, 1 hour, geometric mean vs concentration
Sequence of HeLa cells (TfR1+) (P02786 whole entry): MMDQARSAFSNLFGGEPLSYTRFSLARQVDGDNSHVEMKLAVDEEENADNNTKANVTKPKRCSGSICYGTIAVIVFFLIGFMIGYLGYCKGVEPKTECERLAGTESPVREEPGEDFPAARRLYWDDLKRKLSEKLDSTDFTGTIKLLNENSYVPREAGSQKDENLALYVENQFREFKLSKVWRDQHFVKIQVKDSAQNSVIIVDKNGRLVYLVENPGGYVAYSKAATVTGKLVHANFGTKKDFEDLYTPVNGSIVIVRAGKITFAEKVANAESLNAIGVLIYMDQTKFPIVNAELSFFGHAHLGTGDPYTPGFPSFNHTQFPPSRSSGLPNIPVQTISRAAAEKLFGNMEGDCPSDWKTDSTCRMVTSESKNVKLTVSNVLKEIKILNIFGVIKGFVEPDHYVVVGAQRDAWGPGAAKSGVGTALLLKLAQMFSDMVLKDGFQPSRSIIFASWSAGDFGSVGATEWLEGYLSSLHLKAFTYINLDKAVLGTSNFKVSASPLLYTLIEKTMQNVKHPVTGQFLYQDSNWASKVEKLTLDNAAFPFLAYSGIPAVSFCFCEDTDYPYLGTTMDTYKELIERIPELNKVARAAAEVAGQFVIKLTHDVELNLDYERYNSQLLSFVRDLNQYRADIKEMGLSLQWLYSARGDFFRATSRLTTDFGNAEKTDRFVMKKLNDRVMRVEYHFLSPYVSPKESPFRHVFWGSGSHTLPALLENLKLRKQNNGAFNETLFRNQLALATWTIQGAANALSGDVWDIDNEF
Method: HeLa cells were cultured in DMEM media (1000 mg/L glucose) supplemented with 10% fetal bovine serum (FBS), 1% of 2 mM L -glutamine and 1% antibiotics (100 units/mL of penicillin and 100 µg/mL of streptomycin). Cells were expanded at 80% confluence and grown at 37°C with 5% CO2. All work performed with human cells follow the ethical principles and EU […]
Cell transfection of HeLa cells to express higher levels of TfR1
In a 96-well plate, 10,000 HeLa cells per well were seeded and left to grow for 24 h. A mixture of Lipofectamine 3000 (0.1 µL/well, Lipofectamine™ 3000 Transfection Reagent, ThermoFisher Scientific ), P3000 Reagent (0.2 µL/well) and the DNA pTfR-mNeonGreen (Plasmid #129608, Addgene) (100 ng/well ) in Opti-MEM medium was prepared. The mixture was incubated for 15 mi n, added to the cells, and incubated for 48 h.
as §1, with “peptide. […]” for “peptide.”

[3] = Peptide stability in human serum; type: in vitro ADME; conditions: peptide 100 µM, 37 °C, aliquots 0 min to 48 h, MeOH protein precipitation, % intact peptide by UHPLC-UV, confirmed with mass spectrometry
Method: Peptide stability in human serum
Peptides were dissolved in human serum at a final concentration of 100 µM and then incubated at 37 °C. Aliquots of 50 µL were taken at different times (0 min, 15 min, 30 min, 1 h, 2 h, 4 h, 6 h, 24 h and 48 h) and flash frozen with acetone/solid CO 2. Samples were treated with 200 µL of MeOH to precipitate serum proteins. Samples for U HPLC analysis were centrifuged and filtered through a 0.22 µm filter before injection. Aliquots were analysed with UHPLC-UV (flow = 0.61 mL/min; gradient 5 -95% MeCN (0.036% TFA) in water (0.045% TFA) in 2 minutes). The amount of peptide remaining was calculated by comparing the area under the curve of the several samples. […]

[4] = molecular target: T1, human Transferrin Receptor (Homo sapiens, UniProt P02786); assay: Biolayer interferometry with immobilized extracellular domain of the receptor; conditions: biotinylated hTfR on streptavidin biosensors, Octet R2, 25 °C, 10 mM HEPES pH 7.4, 150 mM NaCl, 0.05 % Tween-20, 1 mg/mL BSA; peptide 11.1, 33.3, 100 µM; 1:1 binding model; read-out: KD, binding to immobilized human TfR
T1 construct: purchased Acro Biosystems TFR-H82E5
T1 sequence (P02786 89-760 limits assumed): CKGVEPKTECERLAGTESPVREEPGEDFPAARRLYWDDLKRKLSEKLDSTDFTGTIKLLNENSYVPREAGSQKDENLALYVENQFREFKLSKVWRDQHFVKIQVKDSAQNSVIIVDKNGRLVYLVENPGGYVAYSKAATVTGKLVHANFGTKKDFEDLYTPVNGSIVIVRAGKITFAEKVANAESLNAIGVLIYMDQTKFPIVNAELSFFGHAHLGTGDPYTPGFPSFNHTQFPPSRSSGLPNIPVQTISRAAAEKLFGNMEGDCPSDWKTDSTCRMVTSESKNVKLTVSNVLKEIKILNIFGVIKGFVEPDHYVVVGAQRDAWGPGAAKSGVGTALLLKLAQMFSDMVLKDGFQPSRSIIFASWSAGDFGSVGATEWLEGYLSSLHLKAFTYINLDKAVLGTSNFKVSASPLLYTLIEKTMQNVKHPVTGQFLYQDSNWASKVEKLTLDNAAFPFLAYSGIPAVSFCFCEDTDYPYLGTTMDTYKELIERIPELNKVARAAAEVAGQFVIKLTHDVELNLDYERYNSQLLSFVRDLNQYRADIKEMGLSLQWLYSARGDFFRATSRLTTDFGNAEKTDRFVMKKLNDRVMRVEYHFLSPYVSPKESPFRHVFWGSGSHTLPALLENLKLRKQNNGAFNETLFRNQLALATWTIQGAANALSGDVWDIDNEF
Method: Biophysical characterization
Binding assays were performed on an Octet R2 (Sartorious) using streptavidin-coated biosensors (SA biosensors, 18-5019). Biosensors were equilibrated for at least 10 min in binding buffer (10 mM HEPES pH 7.4, 150 mM NaCl, 0.05 % Tween-20, 1 mg/mL BSA).
Experiments were designed and executed from the Octet BLI Discovery 13.0 software. The biotinylated human Transferrin Receptor (TFR-H82E5, Acro Biosystems) was immobilized onto the biosensor by dipping the sensors into a solution of 1 µg/mL hTfR for 500 s, followed by dipping the sensor into a fresh solution of binding buffer to stablish a baseline for 200 s.
Titrations were executed at 25 °C while rotating at 1000 rpm. In the association phase, the sensors were dipped into a solution containing the peptides at several concentrations in binding buffer for 150 s. After reaching equilibrium, the biosensors were dipped into fresh binding solution to monitor the dissociation kinetics for 200 s. Kinetic data were collected and processed using a 1:1 binding model to obtain the affinity constants using the Octet Analysis […]
Unpaired two-tailed student t tests were applied to evaluate the significant difference or p values between data sets using Prism 6.0c software.
1. C. Heinis, T. Rutherford, S. Freund and G. Winter, Nat Chem Biol, 2009, 5, 502–507.
2. […]

Fold increase in the transport of GFP on conjugation to the shuttle ([1]; GFP conjugate vs GFP) [fold] | Fold increase in the transport of the scFv on conjugation to the shuttle ([1]; sCy5-labelled scFv conjugate vs scFv) [fold] | App. Kd, association to HeLa cells (TfR1+) [2] | App. Kd, association to HeLa cells (TfR1+) ([2]; listed as BB4) [µM] | half-life at 100 µM [3] [h] | Kd [4] [µM] | Compound
4 | 5 | roughly 40 nM | 0.037 ± 0.002 | 5.5 ± 2.5 |  | CC(C)[C@@H]1NC(=O)[C@@H](N)CSCc2cc3cc(c2)CSC[C@H](NC(=O)[C@H](CC(=O)O)NC(=O)[C@H](Cc2c[nH]c4ccccc24)NC(=O)[C@H](Cc2c[nH]cn2)NC1=O)C(=O)N[C@@H](CCCNC(=N)N)C(=O)N[C@@H](CCC(N)=O)C(=O)N[C@@H](Cc1c[nH]c2ccccc12)C(=O)N[C@H](C(N)=O)CSC3 [BrainBike-4] (H-CVHWDCRQWC-NH2; linker 1-6-10 via TBMB)
 |  | > 0.4 µM |  | 7.7 ± 1.9 |  | CC(C)[C@@H]1NC(=O)[C@@H](N)CSCc2cc3cc(c2)CSC[C@H](NC(=O)[C@H](CC(=O)O)NC(=O)[C@H](Cc2c[nH]c4ccccc24)NC(=O)[C@H](Cc2c[nH]cn2)NC1=O)C(=O)N[C@@H](CCCNC(=N)N)C(=O)N[C@@H](CCC(N)=O)C(=O)N[C@@H](Cc1c[nH]c2ccccc12)C(=O)N[C@@H](Cc1c[nH]c2ccccc12)C(=O)N[C@@H](CCC(N)=O)C(=O)N1CCC[C@H]1C(=O)N[C@@H](CO)C(=O)N[C@H](C(N)=O)CSC3 [BrainBike-1] (H-CVHWDCRQWWQPSC-NH2; linker 1-6-14 via TBMB)
 |  | 0.27 ± 0.005 µM |  | 1.8 ± 0.5 | > 100 | H-GVHWDFRQWWQPS-NH2 [Y1, reference compound]
 |  | 0.12 ± 0.015 µM |  | 3.5 ± 0.3 |  | CC(C)[C@@H]1NC(=O)[C@@H](N)CSCc2cc3cc(c2)CSC[C@H](NC(=O)[C@H](Cc2c[nH]c4ccccc24)NC(=O)[C@H](CCC(N)=O)NC(=O)[C@H](CCCNC(=N)N)NC(=O)[C@H](Cc2ccccc2)NC(=O)[C@H](CC(=O)O)NC(=O)[C@H](Cc2c[nH]c4ccccc24)NC(=O)[C@H](Cc2c[nH]cn2)NC1=O)C(=O)N[C@@H](CCC(N)=O)C(=O)N1CCC[C@H]1C(=O)N[C@@H](CO)C(=O)N[C@H](C(N)=O)CSC3 [BrainBike-2] (H-CVHWDFRQWCQPSC-NH2; linker 1-10-14 via TBMB)
 |  | 0.25 ± 0.005 µM |  | 4.8 ± 0.6 |  | CC(C)[C@@H]1NC(=O)[C@@H](N)CSCc2cc3cc(c2)CSC[C@H](NC(=O)[C@H](CCCNC(=N)N)NC(=O)[C@H](Cc2ccccc2)NC(=O)[C@H](CC(=O)O)NC(=O)[C@H](Cc2c[nH]c4ccccc24)NC(=O)[C@H](Cc2c[nH]cn2)NC1=O)C(=O)N[C@@H](CCC(N)=O)C(=O)N[C@@H](Cc1c[nH]c2ccccc12)C(=O)N[C@@H](Cc1c[nH]c2ccccc12)C(=O)N[C@@H](CCC(N)=O)C(=O)N1CCC[C@H]1C(=O)N[C@@H](CO)C(=O)N[C@H](C(N)=O)CSC3 [BrainBike-3] (H-CVHWDFRCQWWQPSC-NH2; linker 1-8-15 via TBMB)
